Test system: 997726-040-R-J2-PDC tumor spheroids, viability
Assay: Anticancer human tumor 997726-040-R-J2-PDC patient-derived squamous cell lung carcinoma cell line growth inhibition [PI3K]
Details: spheroids with HUVEC and MSC; for viability, T/C: stronger effect = lower value
How it was run: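 High-throughput combination screen: PI3K inhibitors crossed with targeted small molecules on complex spheroids of tumor cells, HUVEC and MSCs at 37 degrees C, 5% CO2. Top concentration was at or near clinical Cmax (otherwise 10 microM), with half-log decrements.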

[1] = curve of first compound, second compound 0.0316 µM
[2] = curve of first compound, second compound 0.1 µM
[3] = curve of first compound, second compound 0.316 µM
[4] = curve of first compound, second compound 1 µM
[5] = second compound 0.0316 µM, first compound 0.0316 µM
[6] = second compound 0.0316 µM, first compound 0.1 µM
[7] = second compound 0.0316 µM, first compound 0.316 µM
[8] = second compound 0.0316 µM, first compound 1 µM
[9] = second compound 0.0316 µM, first compound 3.16 µM
[10] = second compound 0.0316 µM, first compound 10 µM
[11] = second compound 0.1 µM, first compound 0.0316 µM
[12] = second compound 0.1 µM, first compound 0.1 µM
[13] = second compound 0.1 µM, first compound 0.316 µM
[14] = second compound 0.1 µM, first compound 1 µM
[15] = second compound 0.1 µM, first compound 3.16 µM
[16] = second compound 0.1 µM, first compound 10 µM
[17] = second compound 0.316 µM, first compound 0.0316 µM
[18] = second compound 0.316 µM, first compound 0.1 µM
[19] = second compound 0.316 µM, first compound 0.316 µM
[20] = second compound 0.316 µM, first compound 1 µM
[21] = second compound 0.316 µM, first compound 3.16 µM
[22] = second compound 0.316 µM, first compound 10 µM
[23] = second compound 1 µM, first compound 0.0316 µM
[24] = second compound 1 µM, first compound 0.1 µM
[25] = second compound 1 µM, first compound 0.316 µM
[26] = second compound 1 µM, first compound 1 µM
[27] = second compound 1 µM, first compound 3.16 µM
[28] = second compound 1 µM, first compound 10 µM
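Note: spheroids exposed to compounds for seven days before readout.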

SMILES: CCCS(=O)(=O)Nc1ccc(F)c(C(=O)c2c[nH]c3ncc(-c4ccc(Cl)cc4)cc23)c1F + CC(Nc1ccc2c(c1)OCCn1cc(N3C(=O)OCC3C(F)F)nc1-2)C(N)=O
- IC50 (curve of first compound, second compound 0.00316 µM): 6.54 µM
- IC50 (curve of first compound, second compound 0.01 µM): 6.21 µM
- IC50 [1]: 4.99 µM
- IC50 [2]: 3.46 µM
- IC50 [3]: < 0.0316 µM
- IC50 [4]: < 0.0316 µM
- viability, T/C (second compound 0.00316 µM, first compound 0.0316 µM): 83.8%
- viability, T/C (second compound 0.00316 µM, first compound 0.1 µM): 101%
- viability, T/C (second compound 0.00316 µM, first compound 0.316 µM): 98.2%
- viability, T/C (second compound 0.00316 µM, first compound 1 µM): 108%
- viability, T/C (second compound 0.00316 µM, first compound 3.16 µM): 107%
- viability, T/C (second compound 0.00316 µM, first compound 10 µM): 20.9%
- viability, T/C (second compound 0.01 µM, first compound 0.0316 µM): 76.5%
- viability, T/C (second compound 0.01 µM, first compound 0.1 µM): 94.7%
- viability, T/C (second compound 0.01 µM, first compound 0.316 µM): 90.7%
- viability, T/C (second compound 0.01 µM, first compound 1 µM): 90.3%
- viability, T/C (second compound 0.01 µM, first compound 3.16 µM): 97.1%
- viability, T/C (second compound 0.01 µM, first compound 10 µM): 21.8%
- viability, T/C [5]: 65.1%
- viability, T/C [6]: 64.1%
- viability, T/C [7]: 72.4%
- viability, T/C [8]: 72%
- viability, T/C [9]: 70.3%
- viability, T/C [10]: 21.8%
- viability, T/C [11]: 54.6%
- viability, T/C [12]: 53.1%
- viability, T/C [13]: 49.4%
- viability, T/C [14]: 51.9%
- viability, T/C [15]: 52.9%
- viability, T/C [16]: 22.6%
- viability, T/C [17]: 35.6%
- viability, T/C [18]: 36.8%
- viability, T/C [19]: 40.1%
- viability, T/C [20]: 43.6%
- viability, T/C [21]: 39.8%
- viability, T/C [22]: 17.3%
- viability, T/C [23]: 35.6%
- viability, T/C [24]: 28.7%
- viability, T/C [25]: 29.8%
- viability, T/C [26]: 32.5%
- viability, T/C [27]: 30.9%
- viability, T/C [28]: 16.1%

SMILES: C[C@@H](NC(=O)c1ncnc(N)c1Cl)c1ncc(C(=O)Nc2cc(C(F)(F)F)c(Cl)cn2)s1 + CC(Nc1ncnc2nc[nH]c12)c1cc2cccc(Cl)c2c(=O)n1-c1ccccc1
- IC50 [1]: > 10 µM
- IC50 [2]: > 10 µM
- IC50 [3]: > 10 µM
- IC50 [4]: > 10 µM
- IC50 (curve of first compound, second compound 3.16 µM): > 10 µM
- IC50 (curve of first compound, second compound 10 µM): 4.74 µM
- viability, T/C [5]: 123%
- viability, T/C [6]: 112%
- viability, T/C [7]: 113%
- viability, T/C [8]: 120%
- viability, T/C [9]: 97.2%
- viability, T/C [10]: 84.1%
- viability, T/C [11]: 108%
- viability, T/C [12]: 129%
- viability, T/C [13]: 118%
- viability, T/C [14]: 118%
- viability, T/C [15]: 103%
- viability, T/C [16]: 68.7%
- viability, T/C [17]: 114%
- viability, T/C [18]: 114%
- viability, T/C [19]: 128%
- viability, T/C [20]: 119%
- viability, T/C [21]: 96.8%
- viability, T/C [22]: 70.1%
- viability, T/C [23]: 114%
- viability, T/C [24]: 102%
- viability, T/C [25]: 108%
- viability, T/C [26]: 113%
- viability, T/C [27]: 91.5%
- viability, T/C [28]: 72.8%
- viability, T/C (second compound 3.16 µM, first compound 0.0316 µM): 97%
- viability, T/C (second compound 3.16 µM, first compound 0.1 µM): 90.9%
- viability, T/C (second compound 3.16 µM, first compound 0.316 µM): 83.8%
- viability, T/C (second compound 3.16 µM, first compound 1 µM): 79.2%
- viability, T/C (second compound 3.16 µM, first compound 3.16 µM): 79.5%
- viability, T/C (second compound 3.16 µM, first compound 10 µM): 61.5%
- viability, T/C (second compound 10 µM, first compound 0.0316 µM): 61.4%
- viability, T/C (second compound 10 µM, first compound 0.1 µM): 62.4%
- viability, T/C (second compound 10 µM, first compound 0.316 µM): 60.2%
- viability, T/C (second compound 10 µM, first compound 1 µM): 59.5%
- viability, T/C (second compound 10 µM, first compound 3.16 µM): 52.3%
- viability, T/C (second compound 10 µM, first compound 10 µM): 43.9%

SMILES: CNC(=O)c1ccc(N2C(=S)N(c3ccc(C#N)c(C(F)(F)F)c3)C(=O)C2(C)C)cc1F
- viability, T/C (compound 0.0316 µM): 109% [middle of 4 runs]
- viability, T/C (compound 0.1 µM): 95.3% [middle of 4 runs]
- viability, T/C (compound 0.316 µM): 97% [middle of 4 runs]
- viability, T/C (compound 1 µM): 93.3% [middle of 4 runs]
- viability, T/C (compound 3.16 µM): 108% [middle of 4 runs]
- viability, T/C (compound 10 µM): 95.8% [middle of 4 runs]
- IC50 (curve of compound): > 10 µM
